Columns and labels:
[1] = Cynomolgus monkey pharmacokinetics; assay type: in vivo; set-up: AUC: concentration or dose not given beside the values
Excerpt: Example 53: Investigation of the Pharmacokinetic Characteristics of the Compounds of the Present Invention
SD rats: male, 180-250 g, purchased from Guangdong Medical Laboratory Animal Center. Cynomolgus monkey: male, 4-6 kg, purchased from Guangzhou Chunsheng Biological Research Institute Co., Ltd. Beagle dog: male, 8-12 kg, developed in Kanglong Chemical (Ningbo) New Drug Technology Co., Ltd.
Reagents: DMSO (dimethyl sulfoxide), PEG-400 (polyethylene glycol 400), normal brine, heparin, acetonitrile, formic acid, and propranolol (internal standard) are commercially available.
Instrumentation: Thermo Fisher Scientific LC-MS (U300 UPLC, TSQ […] ULTRA triple quadrupole mass spectrometer).
The compound was weighed and dissolved in DMSO-PEG-400-physiological brine (5:60:35, v/v/v) system. After the rats/monkeys were administered intravenously or by gavage, 200 μL of venous blood was collected at 5 min (not collected when administered by gavage), 15 min, 30 min, 1 h, 2 h, 4 h, 6 h, 8 h, and 24 h in heparinized EP tubes, centrifuged at 12000 rpm for 2 min, and the plasma was frozen at −80° C. for testing. A certain amount of the test substance was precisely weighed and dissolved in DMSO to 1 mg/mL, which was used as a stock solution. An appropriate amount of compound stock solution was accurately pipetted and diluted with acetonitrile to prepare a standard series of solutions. 20 μL of each of the above standard series solutions were accurately pipetted, added with 180 μL of blank plasma, vortexed and mixed to prepare plasma samples equivalent to plasma concentrations of 1, 3, 10, 30, 100, 300, 1000, 3000 and 5000 ng/mL. Two-sample analysis was performed for each concentration to establish a standard curve. 20 μL of plasma was taken out, added with 200 μL of internal standard propranolol (5 ng/mL) in acetonitrile, vortexed and mixed. It was centrifuged at 4000 rpm for 5 min, and the supernatant was collected for LC-MS analysis. LC-MS detection conditions were as follows:
Chromatographic column: Thermo Scientific […] GOLD C-18 UPLC column, 100*2.1 mm, 1.9 μm.
Mobile phase: water (0.1% formic acid)-acetonitrile for gradient elution according to the table below.
After blood drug concentrations being detected by LC-MS, WinNonlin 6.1 software was used to calculate pharmacokinetic parameters by non-compartmental model method.

Caco-2 permeability = assay type: in vitro ADME; conditions: human
Description: Example 54: Investigation of the Caco-2 Data of the Compounds of the Present Invention
Medium: DMEM (Corning), FBS (Corning), double antibody (Solarbio), 96-well HTS transwell plate (Corning), Caco-2 cells.
Experimental method: Caco-2 cells were cultured on 96-well HTS transwell plate for 14-18 days, and the TEER value of each well was detected to ensure that the cells in each well formed a complete monolayer. Drug was added and it was incubated for 2h to detect the drug concentrations of A-B and B-A.
Data processing: PappA-B and PappB-A values were calculated: Papp=(VA×[drug]acceptor)/(Area×Time×[drug]initial, donor); Efflux Ratio was calculated: Efflux Ratio=Papp(B-A)/Papp(A-B).

[2] = Caco-2 monolayer, 2h incubation

For COc1cn([C@@H](Cc2ccccc2)C(=O)Nc2ccc(C(=O)O)cc2)c(=O)cc1-c1cc(Cl)ccc1C(C)=O [Compound B, (S)-4-(2-(4-(2-acetyl-5-chlorophenyl)-5-methoxy-2-oxopyridinium-1(2H)-yl)-3-phenylpropanamido)benzoic acid, reference compound], which F ([1]; ig) is on record?
The F was 4.1%.

And the AUC ([1]; male, plasma, iv)?
The AUC was 4220 ng·h/mL.

What about the Cmax ([1]; male, plasma, iv) of the same compound?
The Cmax was 8760 ng/mL.

What about the Tmax ([1]; male, plasma, iv) of the same compound?
The Tmax was 0.083 h.

What about the clearance ([1]; male, plasma, iv) of the same compound?
Its clearance is 4.1 mL/min/kg.

What about the half-life ([1]; male, plasma, iv) of the same compound?
The half-life was 1.2 h.

And the Vd ([1]; male, plasma, iv, read-out: Vss)?
Its Vd is 0.2 L/kg.

What about the AUC ([1]; male, plasma, po, ig) of the same compound?
Its AUC is 1490 ng·h/mL.

And the Cmax ([1]; male, plasma, po, ig)?
The Cmax was 108 ng/mL.

What about the Tmax ([1]; male, plasma, po, ig) of the same compound?
Its Tmax is 2 h.

And the half-life ([1]; male, plasma, po, ig)?
The half-life was 8 h.

And the efflux ratio at 2 h (Caco-2 permeability; Caco-2, Papp(B-A)/Papp(A-B))?
Its efflux ratio at 2 h is 8.75.

What about the Papp A→B at 2 h (Caco-2 permeability; [2]) of the same compound?
The Papp A→B at 2 h was 1.55 ×10⁻⁶ cm/s.

And the Papp B→A at 2 h (Caco-2 permeability; [2])?
The Papp B→A at 2 h was 13.6 ×10⁻⁶ cm/s.

— patent US20230027295A1, “FXIA INHIBITORS AND PREPARATION METHOD THEREFOR AND PHARMACEUTICAL USE THEREOF” (Shenzhen Salubris Pharmaceuticals Co., Ltd., priority 2019, published 2023)
